# Reference: patent publication US8906685B2, “Hanging drop devices, systems and/or methods” (The Regents of The University of Michigan, priority 2010, dated 2014)
# Experiments:
# A431.H9 cells = assay: anti-cancer drug sensitivity testing, conventional 2D culture in 96-well plates, alamarBlue cell viability; format: cell-based; settings: Homo sapiens, % cell viability 96 hours after drug treatment, read-out: IC50 of A431.H9 cells cultured in conventional 2D condition
# Method: To investigate the stability of long-term hanging drop spheroid culture using the designed array plate, osmolality measurements were performed while culturing three types of cells: kidney fibroblast cell (COS7), murine embryonic stem (mES) cell (ES-D3), and a human carcinoma cell that stably express mesothelin (A431.H9). […]
# According to the procedure mentioned above, A431.H9 spheroids at the specified cell numbers were formed, and their growth media were exchanged every other day. […] Cellular viability was monitored at 24, 48, 72, and 96 hours of drug incubation using alamarBlue (Invitrogen). […] Following incubation, each A431.H9 hanging drop spheroid sample plate was read using a plate reader (FLx800 Fluorescence Microplate Reader, Biotek) at 525 nm excitation and 590 nm emission to obtain fluorescence intensity readout. As the fluorescence intensity of alamarBlue is directly proportional to cell number, the average percent cell viability for each drug concentration can be calculated easily by normalizing to the 0 μM untreated spheroid control. […]
# A431.H9 spheroids [1] = assay: anti-cancer drug sensitivity testing, 3D spheroids in 384 hanging drop array plate, alamarBlue cell viability; format: cell-based; settings: Homo sapiens
# Method: To investigate the stability of long-term hanging drop spheroid culture using the designed array plate, osmolality measurements were performed while culturing three types of cells: kidney fibroblast cell (COS7), murine embryonic stem (mES) cell (ES-D3), and a human carcinoma cell that stably express mesothelin (A431.H9). Prior to performing hanging drop culture using the plate, ES-D3 cells were cultured in dishes coated with 0.1% w/v porcine gel (Sigma-Aldrich) and maintained in medium consisting of Dulbecco's Modified Eagle's Medium (DMEM) (Gibco 11960, Invitrogen) with 15% v/v fetal bovine serum (FBS) (Gibco 10082, Invitrogen), 4 mM L-glutamin (Invitrogen), 0.1 mM 2-mercapto-ethanol (Sigma-Aldrich), 0.02% v/v sodium pyruvate (Sigma-Aldrich), 100 U ml^−1 penicillin (Invitrogen), 100 U ml^−1 streptomycin (Invitrogen), and 1000 U ml^−1 ESGRO (Invitrogen) which contains leukemia inhibitory factor (LIF). COS7 and A431.H9 cells were cultured in DMEM (Gibco 11965, Invitrogen) with 10% v/v FBS (Gibco 10082, Invitrogen), and 1% v/v antibiotic-antimicotic (Gibco 15240, Invitrogen). All the cells were cultured in a humidified incubator (37° C. in an atmosphere of 5% CO^2). Cell suspensions for the hanging drop experiments were made by dissociating cells with 0.25% trypsin-EDTA (Gibco 25200, Invitrogen), centrifugation of dissociated cells at 1000 rpm for 1 min at room temperature, and re-suspended in growth media. Cell density was estimated using a hemocytometer.
# On the spheroid culture plate, a 15 μl cell suspension was dispensed into the access hole at each cell culture site to form a hanging drop. In order to prevent evaporation, 4 ml of distilled water was added into the peripheral water reservoir. In addition, the plate was sandwiched by a well-plate lid and a 96-well plate filled with distilled water, and wrapped using a Parafilm. The growth media was exchanged every other day by taking 5 μl solution from a drop, and adding 7 μl fresh growth media into a drop. For the osmolality measurement, 10 μl sample solution was pipetted out from a drop and transferred to a vapor pressure osmometer (Vapro Model 5520, Wesco, Inc.) for analysis.
# According to the procedure mentioned above, A431.H9 spheroids at the specified cell numbers were formed, and their growth media were exchanged every other day. TPZ and 5-FU stock solutions of four times the final testing concentrations (0, 0.1, 1, 10, 100, 1000, 5000 μM) were initially prepared in Dulbecco's phosphate buffered saline (D-PBS) (Gibco 14190, Invitrogen). On day 2 of A431.H9 spheroid culture, 5 μl of the appropriate concentration of TPZ (or 5-FU) stock solutions was subsequently added to each of the 15 μl A431.H9 cell hanging drop droplets. Cellular viability was monitored at 24, 48, 72, and 96 hours of drug incubation using alamarBlue (Invitrogen). Following manufacturer's protocol, 2 μl (one-tenth of each hanging drop sample volume) of alamarBlue was added to each A431.H9 hanging drop spheroid sample and incubated for 2 hours. Following incubation, each A431.H9 hanging drop spheroid sample plate was read using a plate reader (FLx800 Fluorescence Microplate Reader, Biotek) at 525 nm excitation and 590 nm emission to obtain fluorescence intensity readout. As the fluorescence intensity of alamarBlue is directly proportional to cell number, the average percent cell viability for each drug concentration can be calculated easily by normalizing to the 0 μM untreated spheroid control. […]
# A431.H9 spheroids [2] = assay: time-lapse images of drug-treated spheroids in 384 hanging drop array plate; format: cell-based, human; settings: all 3 spheroid sizes, 96 hours; for spheroid size over the drug treatment period: 10 μM drug; for spheroid viability / integrity over the drug treatment period: 5000 μM drug
# Method: According to the procedure mentioned above, A431.H9 spheroids at the specified cell numbers were formed, and their growth media were exchanged every other day. TPZ and 5-FU stock solutions of four times the final testing concentrations (0, 0.1, 1, 10, 100, 1000, 5000 μM) were initially prepared in Dulbecco's phosphate buffered saline (D-PBS) (Gibco 14190, Invitrogen). On day 2 of A431.H9 spheroid culture, 5 μl of the appropriate concentration of TPZ (or 5-FU) stock solutions was subsequently added to each of the 15 μl A431.H9 cell hanging drop droplets. Cellular viability was monitored at 24, 48, 72, and 96 hours of drug incubation using alamarBlue (Invitrogen). Following manufacturer's protocol, 2 μl (one-tenth of each hanging drop sample volume) of alamarBlue was added to each A431.H9 hanging drop spheroid sample and incubated for 2 hours. Following incubation, each A431.H9 hanging drop spheroid sample plate was read using a plate reader (FLx800 Fluorescence Microplate Reader, Biotek) at 525 nm excitation and 590 nm emission to obtain fluorescence intensity readout. As the fluorescence intensity of alamarBlue is directly proportional to cell number, the average percent cell viability for each drug concentration can be calculated easily by normalizing to the 0 μM untreated spheroid control. Anti-cancer drug sensitivity experiments under 2D control conditions were performed in standard tissue culture treated 96-well plates (Corning Costar 3596), with everything else being the same as the 3D spheroid experiments. 50% of culture media was replaced by fresh media every other day.
# FIGS. 3a-c show the time-lapse images of A431.H9 spheroids treated with TPZ at 0, 10, and 5000 μM for 3 different spheroid sizes (300, 1500, and 7500-cell spheroids). The control untreated A431.H9 spheroids at all 3 sizes still grow and proliferate properly over the duration of drug treatment. […] The IC50 of A431.H9 cells cultured in conventional 2D condition is about 50 μM, while the IC50 of the A431.H9 3D spheroids for all 3 sizes is about 8 μM. Contrary to most anti-cancer drugs, A431.H9 cells treated with TPZ are more resistant when cultured under 2D conditions rather than 3D conditions.
# Similarly, FIGS. 4a-c show the time-lapse images of A431.H9 spheroids treated with 5-FU at 0, 10, and 5000 μM for 3 different spheroid sizes (300, 1500, and 7500-cell spheroids). Again, the control untreated A431.H9 spheroids at all 3 sizes all look healthy and still proliferate properly over the duration of drug treatment. […] By 96 hours after drug treatment, significant portions of cells had already dissociated from the A431.H9 spheroids, indicating drug cytotoxicity. […]
# [3] = ALL3, 96 h, 3D condition, all 3 spheroid sizes (300, 1500, 7500-cell), 96 hours after drug treatment
SMILES,IC50 (A431.H9 cells),IC50 (A431.H9 spheroids [1]; [3]),spheroid size over the drug treatment period (A431.H9 spheroids [2]),spheroid viability / integrity over the drug treatment period (A431.H9 spheroids [2]),"IC50 (A431.H9 spheroids [1]; 96 h, 300-cell spheroids, 96 hours after treatment)","IC50 (A431.H9 spheroids [1]; 96 h, 1500-cell spheroids, 96 hours after treatment)","IC50 (A431.H9 spheroids [1]; 96 h, 7500-cell spheroids, 96 hours after treatment)"
"Nc1n[n+]([O-])c2ccccc2[n+]1[O-] [TPZ, tirapazamine]",~50 µM,~8 µM,stayed relatively constant,poor viability,,,
"O=c1[nH]cc(F)c(=O)[nH]1 [5-FU, 5-fluorouracil]",~0.1 µM,1 to 100 µM,slowly become smaller,spheroid integrity was greatly compromised,~3 µM,~1 µM,~90 µM
